Measured values: ChEMBL document CHEMBL5154873, “Selective degradation of PARP2 by PROTACs via recruiting DCAF16 for triple-negative breast cancer” (Eur J Med Chem, 2022)
Calls of active or inactive are those of the source. The calls are words filed in the database; no cut-off is given here.

Key:
[1] = system: MDA-MB-231; assay: Antiproliferative activity against wild type human MDA-MB-231 cells assessed as reduction in cell viability incubated for 5 to 10 days by MTT assay; assay type: functional, cell-based
[2] = system: MDA-MB-436; assay: Antiproliferative activity against human BRCA1 -/- MDA-MB-436 cells assessed as reduction in cell viability incubated for 5 to 10 days by MTT assay; assay type: functional, cell-based
[3] = system: CAPAN-1; assay: Antiproliferative activity against human BRCA2 -/- CAPAN-1 cells assessed as reduction in cell viability incubated for 5 to 10 days by MTT assay; assay type: functional, cell-based
[4] = system: MDA-MB-468; assay: Antiproliferative activity against human PTEN -/- MDA-MB-468 cells assessed as reduction in cell viability incubated for 5 to 10 days by MTT assay; assay type: functional, cell-based
[5] = molecular target: DDB1- and CUL4-associated factor 16/Poly [ADP-ribose] polymerase 2 (Homo sapiens, UniProt Q9UGN5+Q9NXF7); assay: Protac activity at DCAF16 E3 ligase/PARP2 in human MDA-MB-231 cells assessed as induction of PARP2 degradation at 1 uM measured after 24 hrs by Western blot analysis; assay type: cell-based
[6] = system: MDA-MB-231; assay: Induction of cell cycle arrest in human MDA-MB-231 cells assessed as accumulation at G2/M phase measured after 24 hrs by flow cytometry analysis; assay type: functional, cell-based; conditions: dose 0.156-1.25 µM, DDE = dose-dependent effect
[7] = system: MDA-MB-231; assay: In vivo antitumor activity against human MDA-MB-231 cells xenografted BALB/c mouse assessed as tumor growth inhibition at 100 mg/kg, IG measured after 21 days; assay type: functional; conditions: MDA-MB-231, po, 504 h, time 21 day, read-out: TGI
[8] = system: MDA-MB-436; assay: Induction of cell cycle arrest in human (BRAC1-/-) MDA-MB-436 cells assessed as accumulation at G2/M phase measured after 48 hrs by flow cytometry analysis; assay type: functional, cell-based; conditions: dose 0.312-2.5 µM, DDE = dose-dependent effect

DDB1- and CUL4-associated factor 16/Poly [ADP-ribose] polymerase 2, sequence (Q9NXF7 whole entry, looked up): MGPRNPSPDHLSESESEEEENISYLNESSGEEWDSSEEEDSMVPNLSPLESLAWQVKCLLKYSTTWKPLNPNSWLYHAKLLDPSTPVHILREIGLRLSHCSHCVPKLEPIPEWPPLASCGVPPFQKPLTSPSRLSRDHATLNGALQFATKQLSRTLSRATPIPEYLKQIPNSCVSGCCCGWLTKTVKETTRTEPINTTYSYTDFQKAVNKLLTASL
DDB1- and CUL4-associated factor 16/Poly [ADP-ribose] polymerase 2, sequence (Q9UGN5 whole entry, looked up): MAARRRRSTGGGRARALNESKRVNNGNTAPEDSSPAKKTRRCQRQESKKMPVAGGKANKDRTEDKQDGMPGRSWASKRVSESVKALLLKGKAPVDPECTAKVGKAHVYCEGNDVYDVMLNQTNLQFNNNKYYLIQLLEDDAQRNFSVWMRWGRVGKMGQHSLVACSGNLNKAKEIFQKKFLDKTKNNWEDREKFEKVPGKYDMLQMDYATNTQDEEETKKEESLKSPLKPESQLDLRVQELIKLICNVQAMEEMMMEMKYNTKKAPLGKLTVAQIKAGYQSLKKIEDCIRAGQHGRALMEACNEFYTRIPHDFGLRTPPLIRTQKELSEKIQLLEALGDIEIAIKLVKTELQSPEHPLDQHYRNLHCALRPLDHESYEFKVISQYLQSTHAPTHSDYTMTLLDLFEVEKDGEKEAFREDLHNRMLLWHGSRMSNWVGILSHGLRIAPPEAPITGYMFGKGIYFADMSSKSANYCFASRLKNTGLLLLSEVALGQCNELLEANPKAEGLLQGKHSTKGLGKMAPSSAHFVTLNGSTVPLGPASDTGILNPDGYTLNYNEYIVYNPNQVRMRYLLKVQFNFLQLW

Row | SMILES | IC50 [1] | IC50 [2] | IC50 [3] | IC50 [4] | Activity [5] | Activity [6] | inhibition in vivo at 100 mg/kg [7] | Activity [8]
1 | O=C(COc1ccc2c(c1)CCCN2C(=O)CCl)NCCOCCOCCOCCNC(=O)CN1CCN(C(=O)c2cc(Cc3n[nH]c(=O)c4ccccc34)ccc2F)CC1 | > 20000 nM | 1740 nM | 3490 nM | > 20000 nM |  |  |  | 
2 | O=C(COc1ccc2c(c1)CCCN2C(=O)CCl)NCCOCCOCCOCCOCCNC(=O)CN1CCN(C(=O)c2cc(Cc3n[nH]c(=O)c4ccccc34)ccc2F)CC1 | > 20000 nM | 5020 nM | 7040 nM | > 20000 nM |  |  |  | 
3 | NC(=O)n1nc(Cc2ccc(F)c(C(=O)N3CCN(C(=O)CCC(=O)NCCCCNC(=O)COc4ccc5c(c4)CCCN5C(=O)CCl)CC3)c2)c2ccccc2c1=O | 9740 nM | 820 nM | 1960 nM | 7450 nM | Active |  |  | 
4 | O=C(COc1ccc2c(c1)CCCN2C(=O)CCl)NCCCCC(=O)N1CCN(C(=O)c2cc(Cc3n[nH]c(=O)c4ccccc34)ccc2F)CC1 | > 20000 nM | 570 nM | 790 nM | 7240 nM |  |  |  | 
5 | O=C(COc1ccc2c(c1)CCCN2C(=O)CCl)NCCCNC(=O)CN1CCN(C(=O)c2cc(Cc3n[nH]c(=O)c4ccccc34)ccc2F)CC1 | > 20000 nM | 2700 nM | 3370 nM | > 20000 nM |  |  |  | 
6 | O=C(CCC(=O)N1CCN(C(=O)c2cc(Cc3n[nH]c(=O)c4ccccc34)ccc2F)CC1)NCCCCCNC(=O)COc1ccc2c(c1)CCCN2C(=O)CCl | 2420 nM | 290 nM | 890 nM | 1220 nM | Active |  |  | 
7 | O=C(COc1ccc2c(c1)CCCN2C(=O)CCl)NCC(=O)N1CCN(C(=O)c2cc(Cc3n[nH]c(=O)c4ccccc34)ccc2F)CC1 | 3510 nM | 55 nM | 610 nM | 5850 nM |  |  |  | 
8 | O=C(COc1ccc2c(c1)CCCN2C(=O)CCl)NCCCCCCCC(=O)N1CCN(C(=O)c2cc(Cc3n[nH]c(=O)c4ccccc34)ccc2F)CC1 | 4230 nM | 110 nM | 120 nM | 2110 nM | Active |  |  | 
9 | O=C(CCC(=O)N1CCN(C(=O)c2cc(Cc3n[nH]c(=O)c4ccccc34)ccc2F)CC1)NCCOCCOCCOCCNC(=O)COc1ccc2c(c1)CCCN2C(=O)CCl | 9710 nM | 1750 nM | 1600 nM | 6370 nM |  |  |  | 
10 | O=C(COc1ccc2c(c1)CCCN2C(=O)CCl)NCCCCCCCCCCC(=O)N1CCN(C(=O)c2cc(Cc3n[nH]c(=O)c4ccccc34)ccc2F)CC1 | 810 nM | 25 nM | 68 nM | 720 nM | Active |  |  | 
11 | O=C(CCC(=O)N1CCN(C(=O)c2cc(Cc3n[nH]c(=O)c4ccccc34)ccc2F)CC1)NCCCCCCCNC(=O)COc1ccc2c(c1)CCCN2C(=O)CCl | 6210 nM | 660 nM | 1690 nM | 5700 nM | Active |  |  | 
12 | O=C(COc1ccc2c(c1)CCCN2C(=O)CCl)NCCOCCOCCOCCn1cc(CCCCC(=O)N2CCN(C(=O)c3cc(Cc4n[nH]c(=O)c5ccccc45)ccc3F)CC2)nn1 | 6680 nM | 630 nM | 2230 nM | 8170 nM |  |  |  | 
13 | O=C(c1cc(Cc2n[nH]c(=O)c3ccccc23)ccc1F)N1CCN(C(=O)C2CC2)CC1 [OLAPARIB] |  |  |  |  |  | Dde | 57.8% | Dde
14 | O=C(COc1ccc2c(c1)CCCN2C(=O)CCl)NCCCCNC(=O)CN1CCN(C(=O)c2cc(Cc3n[nH]c(=O)c4ccccc34)ccc2F)CC1 | 11600 nM | 1840 nM | 2690 nM | 9100 nM |  |  |  | 
15 | CCC(=O)N1CCCc2cc(OCC(=O)NCCCCCCCCCCC(=O)N3CCN(C(=O)c4cc(Cc5n[nH]c(=O)c6ccccc56)ccc4F)CC3)ccc21 | 3100 nM | 43 nM | 87 nM | 2230 nM |  |  |  | 
16 | O=C(COc1ccc2c(c1)CCCN2C(=O)CCl)NCCCC(=O)N1CCN(C(=O)c2cc(Cc3n[nH]c(=O)c4ccccc34)ccc2F)CC1 | > 20000 nM | 490 nM | 840 nM | > 20000 nM |  |  |  | 
17 | O=C(COc1ccc2c(c1)CCCN2C(=O)CCl)NCCNC(=O)CN1CCN(C(=O)c2cc(Cc3n[nH]c(=O)c4ccccc34)ccc2F)CC1 | > 20000 nM | 1690 nM | 3300 nM | 13400 nM |  |  |  | 
18 | O=C(COc1ccc2c(c1)CCCN2C(=O)CCl)NCCCCCCCCC(=O)N1CCN(C(=O)c2cc(Cc3n[nH]c(=O)c4ccccc34)ccc2F)CC1 | 2690 nM | 77 nM | 150 nM | 1700 nM | Active |  |  | 
19 | O=C(CCC(=O)N1CCN(C(=O)c2cc(Cc3n[nH]c(=O)c4ccccc34)ccc2F)CC1)NCCOCCOCCNC(=O)COc1ccc2c(c1)CCCN2C(=O)CCl | 12900 nM | 1190 nM | 1280 nM | 9740 nM |  |  |  | 
20 | O=C(CCC(=O)N1CCN(C(=O)c2cc(Cc3n[nH]c(=O)c4ccccc34)ccc2F)CC1)NCCOCCOCCOCCOCCNC(=O)COc1ccc2c(c1)CCCN2C(=O)CCl | 11000 nM | 780 nM | 1950 nM | 7430 nM |  |  |  | 
21 | O=C(COc1ccc2c(c1)CCCN2C(=O)CCl)NCCCCCCNC(=O)CN1CCN(C(=O)c2cc(Cc3n[nH]c(=O)c4ccccc34)ccc2F)CC1 | 12300 nM | 1960 nM | 4360 nM | 11200 nM |  |  |  | 
22 | O=C(CCC(=O)N1CCN(C(=O)c2cc(Cc3n[nH]c(=O)c4ccccc34)ccc2F)CC1)NCCCCCCNC(=O)COc1ccc2c(c1)CCCN2C(=O)CCl | 5590 nM | 350 nM | 990 nM | 3910 nM | Active |  |  | 
23 | O=C(COc1ccc2c(c1)CCCN2C(=O)CCl)NCCOCCNC(=O)CN1CCN(C(=O)c2cc(Cc3n[nH]c(=O)c4ccccc34)ccc2F)CC1 | > 20000 nM | 2890 nM | 5280 nM | > 20000 nM |  |  |  | 
24 | O=C(COc1ccc2c(c1)CCCN2C(=O)CCl)NCCC(=O)N1CCN(C(=O)c2cc(Cc3n[nH]c(=O)c4ccccc34)ccc2F)CC1 | > 20000 nM | 660 nM | 900 nM | > 20000 nM |  |  |  | 
25 | O=C(COc1ccc2c(c1)CCCN2C(=O)CCl)NCCCCCC(=O)N1CCN(C(=O)c2cc(Cc3n[nH]c(=O)c4ccccc34)ccc2F)CC1 | 5310 nM | 240 nM | 390 nM | 4680 nM |  |  |  | 
26 | O=C(COc1ccc2c(c1)CCCN2C(=O)CCl)NCCOCCOCCNC(=O)CN1CCN(C(=O)c2cc(Cc3n[nH]c(=O)c4ccccc34)ccc2F)CC1 | > 20000 nM | 3460 nM | 7630 nM | > 20000 nM |  |  |  | 
27 | O=C(CCC(=O)N1CCN(C(=O)c2cc(Cc3n[nH]c(=O)c4ccccc34)ccc2F)CC1)NCCOCCNC(=O)COc1ccc2c(c1)CCCN2C(=O)CCl | 8270 nM | 1480 nM | 2830 nM | 6010 nM |  |  |  | 
28 | O=C(CCC(=O)N1CCN(C(=O)c2cc(Cc3n[nH]c(=O)c4ccccc34)ccc2F)CC1)NCCNC(=O)COc1ccc2c(c1)CCCN2C(=O)CCl | 8440 nM | 1480 nM | 3160 nM | 6180 nM | Active |  |  | 
29 | O=C(CCC(=O)N1CCN(C(=O)c2cc(Cc3n[nH]c(=O)c4ccccc34)ccc2F)CC1)NCCCNC(=O)COc1ccc2c(c1)CCCN2C(=O)CCl | 7190 nM | 1190 nM | 1870 nM | 5900 nM | Active |  |  | 
